Laboratory results as given in patent US11371055B2, “Herbicide resistance genes” (CORTEVA AGRISCIENCE LLC, priority 2005, dated 2022).

Key:
T1 AAD-12 (v1) canola = assay: 2,4-D DMA tolerance in T1 canola; format: in vivo, Brassica napus
Experimental: For T1 AAD-12 (v1), 5-6 mg of seed were stratified, sown, and a fine layer of Sunshine Mix #5 media was added as a top layer of soil. Emerging plants were selected with 560 g ae/ha 2,4-D at 7 and 13 days after planting.
Surviving plants were transplanted into 3-inch pots containing Metro Mix media. Surviving plants from T1 progenies, that were selected with 560 g ae/ha 2,4-D, were also transplanted into 3-inch pots filled with Metro Mix soil. At 2-4 leaf stage plants were sprayed with either 280, 560, 1120, or 2240 g ae/ha 2,4-D DMA. Plants were graded at 3 and 14 DAT and compared to untransformed control plants. A sampling of T1 event injury data 14DAT may be seen in Table 30.

[1] = system: Untransformed control corn (5XH751×Hi II); assay: Brace root injury of untransformed control corn after 2,4-D DMA; format: in vivo, Zea mays; settings: 2240 g ae/ha 2,4-D DMA, V3-V4 stage, 14DAT
Excerpt: (§1) T1 AAD-12 (v1) seed were planted into 3-inch pots containing Metro Mix media and at 2 leaf stage were sprayed with 70 g ae/ha imazethapyr to eliminate nulls. Surviving plants were transplanted to 1-gallon pots containing Metro Mix media and placed in the same growth conditions as before. At V3-V4 stage the plants were sprayed in the track sprayer set to 187 L/ha at either 560 or 2240 g ac/ha 2,4-D DMA. Plants were graded at 3 and 14 DAT and compared to 5XH751×Hi II control plants. A grading scale of 0-10 (no injury to extreme auxin injury) was developed to distinguish brace root injury. Brace Root grades were taken on 14DAT to show 2,4-D tolerance. 2,4-D causes brace root malformation, and is a consistent indicator of auxinic herbicide injury in corn. […] Event “pDAB4101(0)001.001” was apparently unstable; however, the other two events were robustly tolerant to 2,4-D and 2,4-D+imazethapyr or 2,-4D+glyphosate (see Table 16).

[2] = system: 2P782 (Roundup Ready Control) corn; assay: Herbicide tolerance of 2P782 Roundup Ready control corn in the F1 stack test; format: in vivo, Zea mays; settings: 1120 g ae/ha 2,4-D DMA
Excerpt: AAD-12 (v1) (pDAB4101) and elite Roundup Ready inbred (BE1146RR) were reciprocally crossed and F1 seed was collected. The seed from two F1 lines were planted and treated with 70 g ae/ha imazethapyr at the V2 stage to eliminate nulls. To the surviving plants, reps were separated and either treated with 1120 g ae/ha 2,4-D DMA+70 g ae/ha imazethapyr (to confirm presence of AHAS gene) or 1120 g ae/ha 2,4-D DMA+1680 g ae/ha glyphosate (to confirm the presence of the Round Up Ready gene) in a track sprayer calibrated to 187 L/ha. Plants were graded 3 and 16 DAT.

[3] = system: AAD-12 (v1) transformed T1 corn plants; assay: Brace root injury of T1 corn after 2,4-D DMA; format: in vivo, Zea mays; settings: 2240 g ae/ha 2,4-D DMA, V3-V4 stage, 14DAT
Excerpt: as §1

[4] = system: AAD-12 (v1) transformed T0 tobacco events (pDAS1580); assay: Postemergence herbicide tolerance in T0 tobacco; format: in vivo, Nicotiana tabacum; settings: 560 g ae/ha fluroxypyr
Excerpt: T0 plants from each of the 19 events were challenged with a wide range of 2,4-D, triclopyr, or fluroxypyr sprayed on plants that were 3-4 inches tall. Spray applications were made as previously described using a track sprayer at a spray volume of 187 L/ha. 2,4-D dimethylamine salt (Riverside Corp) was applied at 0, 140, 560, or 2240 g ae/ha to representative clones from each event mixed in deionized water. Fluroxypyr was likewise applied at 35, 140, or 560 g ac/ha. Triclopyr was applied at 70, 280, or 1120 g ae/ha. Each treatment was replicated 1-3 times. Injury ratings were recorded 3 and 14 DAT. Every event tested was more tolerant to 2,4-D than the untransformed control line KY160. In several events, some initial auxinic herbicide-related epinasty occurred at doses of 560 g ae/ha 2,4-D or less. Some events were uninjured at 2,4-D applied at 2240 g ac/ha (equivalent to 4× field rate). On the whole, AAD-12 (v1) events were more sensitive to fluroxypyr, followed by triclopyr, and least affected by 2,4-D. The quality of the events with respect to magnitude of resistance was discerned using T0 plant responses to 560 g ae/ha fluroxypyr. Events were categorized into “low” (>40% injury 14 DAT), “medium” (20-40% injury), “high” (<20% injury). Some events were inconsistent in response among replicates and were deemed “variable.”

## CNC.O=C(O)COc1ccc(Cl)cc1Cl [2,4-D DMA]
T1 AAD-12 (v1) canola; T1 pDAB3759(18)009.001, 280 g ae/ha
  Average % injury 14 DAT: 0%
T1 AAD-12 (v1) canola; T1 pDAB3759(18)009.001, 560 g ae/ha
  Average % injury 14 DAT: 0%
T1 AAD-12 (v1) canola; T1 pDAB3759(18)009.001, 1120 g ae/ha
  Average % injury 14 DAT: 0%
T1 AAD-12 (v1) canola; T1 pDAB3759(18)009.001, 2240 g ae/ha
  Average % injury 14 DAT: 5%
T1 AAD-12 (v1) canola; T1 pDAB3759(18)022.001, 280 g ae/ha
  Average % injury 14 DAT: 0%
T1 AAD-12 (v1) canola; T1 pDAB3759(18)022.001, 560 g ae/ha
  Average % injury 14 DAT: 0%
T1 AAD-12 (v1) canola; T1 pDAB3759(18)022.001, 1120 g ae/ha
  Average % injury 14 DAT: 13%
T1 AAD-12 (v1) canola; T1 pDAB3759(18)022.001, 2240 g ae/ha
  Average % injury 14 DAT: 83%
T1 AAD-12 (v1) canola; T1 pDAB3759(18)023.001, 280 g ae/ha
  Average % injury 14 DAT: 0%
T1 AAD-12 (v1) canola; T1 pDAB3759(18)023.001, 560 g ae/ha
  Average % injury 14 DAT: 0%
T1 AAD-12 (v1) canola; T1 pDAB3759(18)023.001, 1120 g ae/ha
  Average % injury 14 DAT: 3%
T1 AAD-12 (v1) canola; T1 pDAB3759(18)023.001, 2240 g ae/ha
  Average % injury 14 DAT: 6%
T1 AAD-12 (v1) canola; T1 pDAB3759(18)030.001, 280 g ae/ha
  Average % injury 14 DAT: 0%
T1 AAD-12 (v1) canola; T1 pDAB3759(18)030.001, 560 g ae/ha
  Average % injury 14 DAT: 0%
T1 AAD-12 (v1) canola; T1 pDAB3759(18)030.001, 1120 g ae/ha
  Average % injury 14 DAT: 5%
T1 AAD-12 (v1) canola; T1 pDAB3759(18)030.001, 2240 g ae/ha
  Average % injury 14 DAT: 31%
T1 AAD-12 (v1) canola; T1 pDAB3759(33)013.001, 280 g ae/ha
  Average % injury 14 DAT: 0%
T1 AAD-12 (v1) canola; T1 pDAB3759(33)013.001, 560 g ae/ha
  Average % injury 14 DAT: 0%
T1 AAD-12 (v1) canola; T1 pDAB3759(33)013.001, 1120 g ae/ha
  Average % injury 14 DAT: 0%
T1 AAD-12 (v1) canola; T1 pDAB3759(33)013.001, 2240 g ae/ha
  Average % injury 14 DAT: 1%
[1]
  Average Brace Root Injury (0-10 Scale): 9
[2]
  Average % Injury 16DAT: 19%
[3]; event AAD-12 (v1) pDAB4101(0)005.001
  Average Brace Root Injury (0-10 Scale): 0
[3]; event AAD-12 (v1) pDAB41011(0)003.003
  Average Brace Root Injury (0-10 Scale): 1
[3]; event AAD-12 (v1)pDAB4101(0)001.001
  Average Brace Root Injury (0-10 Scale): 8

## Nc1c(Cl)c(F)nc(OCC(=O)O)c1Cl [Fluroxypyr]
[4]; T0 event 1580[1]-004
  Relative Herbicide Tolerance: High
[4]; T0 event 1580[1]-005
  Relative Herbicide Tolerance: Variable
[4]; T0 event 1580[1]-008
  Relative Herbicide Tolerance: Variable
[4]; T0 event 1580[1]-011
  Relative Herbicide Tolerance: High
[4]; T0 event 1580[1]-015
  Relative Herbicide Tolerance: High
[4]; T0 event 1580[1]-016
  Relative Herbicide Tolerance: High
[4]; T0 event 1580[1]-017
  Relative Herbicide Tolerance: High
[4]; T0 event 1580[1]-018
  Relative Herbicide Tolerance: Variable
[4]; T0 event 1580[1]-019
  Relative Herbicide Tolerance: Variable
[4]; T0 event 1580[1]-022
  Relative Herbicide Tolerance: Variable
[4]; T0 event 1580[1]-023
  Relative Herbicide Tolerance: Variable
[4]; T0 event 1580[1]-024
  Relative Herbicide Tolerance: Variable
[4]; T0 event 1580[1]-026
  Relative Herbicide Tolerance: Variable
[4]; T0 event 1580[1]-027
  Relative Herbicide Tolerance: Low
[4]; T0 event 1580[1]-029
  Relative Herbicide Tolerance: Variable
[4]; T0 event 1580[1]-030
  Relative Herbicide Tolerance: High
[4]; T0 event 1580[1]-031
  Relative Herbicide Tolerance: High
[4]; T0 event 1580[1]-032
  Relative Herbicide Tolerance: High
